Measurements: ChEMBL document CHEMBL1201862, “PubChem BioAssay data set” (2004)
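A five-concentration, 48-hour dose response in 96-well plates underlies each endpoint, interpolated linearly between surrounding concentrations. Here, GI50 denotes the concentration required for 50% inhibition of growth.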 Active and inactive are the calls of the source. Rule as the data show it: active = GI50 up to about 1.1 µM and inactive = higher.

Key:
Assay in all cases: NCI-60 cell line screen, 48 h
786-0 = test system: 786-0
EKVX = test system: EKVX
HCC 2998 = test system: HCC 2998
HOP-62 = test system: HOP-62
MOLT-4 = test system: MOLT-4
Malme-3M = test system: Malme-3M
NCI-H226 = test system: NCI-H226
NCI-H23 = test system: NCI-H23
NCI-H522 = test system: NCI-H522
OVCAR-4 = test system: OVCAR-4
OVCAR-5 = test system: OVCAR-5
SF-268 = test system: SF-268
SF-539 = test system: SF-539
SNB-75 = test system: SNB-75
SR = test system: SR
UACC-62 = test system: UACC-62
Hs-578T = test system: Hs-578T
MCF7 = test system: MCF7
MDA-MB-231 = test system: MDA-MB-231

SMILES | GI50 (786-0) | GI50 (EKVX) | GI50 (HCC 2998) | GI50 (HOP-62) | GI50 (MOLT-4) | GI50 (Malme-3M) | GI50 (NCI-H226) | GI50 (NCI-H23) | GI50 (NCI-H522) | GI50 (OVCAR-4) | GI50 (OVCAR-5) | GI50 (SF-268) | GI50 (SF-539) | GI50 (SNB-75) | GI50 (SR) | GI50 (UACC-62) | GI50 (Hs-578T) | GI50 (MCF7) | GI50 (MDA-MB-231)
C=CC(=O)NCNC(=O)C=C | > 100 µM (inactive) | > 100 µM (inactive) | > 100 µM (inactive) | > 100 µM (inactive) | > 100 µM (inactive) | > 100 µM (inactive) | > 100 µM (inactive) | > 100 µM (inactive) | > 100 µM (inactive) | > 100 µM (inactive) | > 100 µM (inactive) | > 100 µM (inactive) | > 100 µM (inactive) | > 100 µM (inactive) | > 100 µM (inactive) | > 100 µM (inactive) | – | – | –
Cc1cc(Cl)ccc1NC(=O)C(=O)Cc1ccc([N+](=O)[O-])c([N+](=O)[O-])c1CC(=O)C(=O)Nc1ccc(Cl)cc1C | > 100 µM (inactive) | > 100 µM (inactive) | > 100 µM (inactive) | > 100 µM (inactive) | > 100 µM (inactive) | > 100 µM (inactive) | > 100 µM (inactive) | > 100 µM (inactive) | 99.1 µM (inactive) | > 100 µM (inactive) | > 100 µM (inactive) | > 100 µM (inactive) | 35 µM (inactive) | > 100 µM (inactive) | 42.1 µM (inactive) | > 100 µM (inactive) | – | – | –
NC(=O)c1csc(C2CCC(CO)O2)n1 (stereo not given) | > 100 µM (inactive) | > 100 µM (inactive) | > 100 µM (inactive) | > 100 µM (inactive) | > 100 µM (inactive) | > 100 µM (inactive) | > 100 µM (inactive) | > 100 µM (inactive) | > 100 µM (inactive) | > 100 µM (inactive) | > 100 µM (inactive) | > 100 µM (inactive) | > 100 µM (inactive) | – | – | > 100 µM (inactive) | – | – | –
CC(C)=NNC(=S)NC12CC3CC(CC(C3)C1)C2 | > 100 µM (inactive) | > 100 µM (inactive) | – | > 100 µM (inactive) | > 100 µM (inactive) | – | > 100 µM (inactive) | > 100 µM (inactive) | > 100 µM (inactive) | > 100 µM (inactive) | > 100 µM (inactive) | > 100 µM (inactive) | > 100 µM (inactive) | > 100 µM (inactive) | > 100 µM (inactive) | > 100 µM (inactive) | – | – | –
Cn1c2c(c3ccccc31)CCN(CCN1CCN(c3ccccc3)CC1)C2=O | 68.2 µM (inactive) | > 100 µM (inactive) | – | – | > 100 µM (inactive) | – | – | 33.5 µM (inactive) | 26.3 µM (inactive) | – | – | > 100 µM (inactive) | 41.3 µM (inactive) | – | – | > 100 µM (inactive) | – | – | –
O=C(/C=C/c1cccc2ccccc12)c1ccccc1Cl | 14 µM (inactive) | 15.1 µM (inactive) | 15.2 µM (inactive) | 18.6 µM (inactive) | 3.85 µM (inactive) | 16.4 µM (inactive) | > 100 µM (inactive) | 14.3 µM (inactive) | 14.4 µM (inactive) | 15.1 µM (inactive) | – | 18.4 µM (inactive) | 17.5 µM (inactive) | 16.7 µM (inactive) | 4.35 µM (inactive) | 14.1 µM (inactive) | – | – | –
Cc1[nH]c2ccccc2c1C1=CC(=O)N(c2ccccc2)C1=O | 10.8 µM (inactive) | 16.8 µM (inactive) | 1.75 µM (inactive) | 7.98 µM (inactive) | 36.2 µM (inactive) | 13.9 µM (inactive) | 19 µM (inactive) | 12.1 µM (inactive) | – | – | 23.1 µM (inactive) | 15.8 µM (inactive) | 10.8 µM (inactive) | – | – | 9.82 µM (inactive) | 8.22 µM (inactive) | 5.28 µM (inactive) | 28.2 µM (inactive)
C=C1CC(C/C=C(\C)CC2CC(=C)C(=O)O2)OC1=O (stereo not given) | > 100 µM (inactive) | > 100 µM (inactive) | > 100 µM (inactive) | > 100 µM (inactive) | > 100 µM (inactive) | > 100 µM (inactive) | – | > 100 µM (inactive) | – | > 100 µM (inactive) | > 100 µM (inactive) | > 100 µM (inactive) | > 100 µM (inactive) | > 100 µM (inactive) | > 100 µM (inactive) | > 100 µM (inactive) | – | – | –
CC(C)(C)C[P+](C)(C)c1ccccc1 | > 100 µM (inactive) | > 100 µM (inactive) | > 100 µM (inactive) | > 100 µM (inactive) | > 100 µM (inactive) | > 100 µM (inactive) | > 100 µM (inactive) | > 100 µM (inactive) | – | > 100 µM (inactive) | 76 µM (inactive) | > 100 µM (inactive) | > 100 µM (inactive) | > 100 µM (inactive) | > 100 µM (inactive) | > 100 µM (inactive) | – | – | –
Cc1ccc(-n2c(=S)[nH]c3ccc(Br)cc3c2=O)cc1 | > 100 µM (inactive) | > 100 µM (inactive) | > 100 µM (inactive) | > 100 µM (inactive) | > 100 µM (inactive) | > 100 µM (inactive) | > 100 µM (inactive) | > 100 µM (inactive) | > 100 µM (inactive) | > 100 µM (inactive) | > 100 µM (inactive) | > 100 µM (inactive) | > 100 µM (inactive) | > 100 µM (inactive) | > 100 µM (inactive) | – | – | – | –
NS(=O)(=O)c1ccc(NC(=O)CC(=O)Nc2ccc(S(N)(=O)=O)cc2)cc1 | > 100 µM (inactive) | > 100 µM (inactive) | > 100 µM (inactive) | > 100 µM (inactive) | > 100 µM (inactive) | > 100 µM (inactive) | > 100 µM (inactive) | > 100 µM (inactive) | > 100 µM (inactive) | > 100 µM (inactive) | > 100 µM (inactive) | > 100 µM (inactive) | > 100 µM (inactive) | > 100 µM (inactive) | > 100 µM (inactive) | > 100 µM (inactive) | – | – | –
CCN(CC)CC(=O)Nc1ccc2c(c1)C(=O)c1ccc(NC(=O)CN(CC)CC)cc1C2=O | 18.9 µM (inactive) | 89.3 µM (inactive) | > 100 µM (inactive) | 20.3 µM (inactive) | 17.8 µM (inactive) | – | – | 77.6 µM (inactive) | 21.1 µM (inactive) | 39.1 µM (inactive) | > 100 µM (inactive) | 23.1 µM (inactive) | 16.3 µM (inactive) | 25.7 µM (inactive) | 18.1 µM (inactive) | 73.8 µM (inactive) | – | – | –
CCOC(=O)C1=C(C(=O)OCC)C2(c3ccccc3)N(O1)c1ccccc1C2(C)C (stereo not given) | 75.7 µM (inactive) | 45.4 µM (inactive) | 93.1 µM (inactive) | 37.6 µM (inactive) | 32 µM (inactive) | 52.2 µM (inactive) | 32.4 µM (inactive) | 30 µM (inactive) | 22.6 µM (inactive) | 18.7 µM (inactive) | 99.3 µM (inactive) | 31.2 µM (inactive) | 43.5 µM (inactive) | 25.6 µM (inactive) | – | 36.5 µM (inactive) | – | – | –
COc1cc(CNc2nc3c(N)cc(C(F)(F)F)cc3nc2-c2ccccc2)cc(OC)c1OC | 88.3 µM (inactive) | 3.41 µM (inactive) | 40.6 µM (inactive) | 39.5 µM (inactive) | 8.83 µM (inactive) | 40 µM (inactive) | 50.2 µM (inactive) | 19 µM (inactive) | 11.6 µM (inactive) | 8.95 µM (inactive) | 37.4 µM (inactive) | 50.8 µM (inactive) | > 10 µM (inactive) | 89.3 µM (inactive) | > 10 µM (inactive) | 35.2 µM (inactive) | – | – | –
O=C1NC(=O)C(C(=O)C(=O)Nc2ccc(Br)cc2)C(=O)N1 | > 100 µM (inactive) | > 100 µM (inactive) | > 100 µM (inactive) | – | > 100 µM (inactive) | > 100 µM (inactive) | > 100 µM (inactive) | > 100 µM (inactive) | > 100 µM (inactive) | > 100 µM (inactive) | – | > 100 µM (inactive) | > 100 µM (inactive) | 12.1 µM (inactive) | > 100 µM (inactive) | > 100 µM (inactive) | – | – | –
CC[n+]1c(/C=C/c2ccc(N(CCCl)CCCl)cc2)ccc2cc(Br)ccc21 | 1.84 µM (inactive) | 3.52 µM (inactive) | 1.38 µM (inactive) | 3.43 µM (inactive) | 1.46 µM (inactive) | 1.13 µM (inactive) | 1.82 µM (inactive) | 2.79 µM (inactive) | 0.471 µM (active) | 1.01 µM (active) | 3.99 µM (inactive) | 1.61 µM (inactive) | 1.55 µM (inactive) | 0.312 µM (active) | 1.46 µM (inactive) | 1.19 µM (inactive) | – | – | –
C=CC[P@]1(=O)O[C@H](c2ccccc2)C(C)N1C(C)C (stereo not given in full) | > 100 µM (inactive) | > 100 µM (inactive) | > 100 µM (inactive) | > 100 µM (inactive) | > 100 µM (inactive) | > 100 µM (inactive) | > 100 µM (inactive) | > 100 µM (inactive) | > 100 µM (inactive) | – | > 100 µM (inactive) | > 100 µM (inactive) | > 100 µM (inactive) | > 100 µM (inactive) | > 100 µM (inactive) | > 100 µM (inactive) | – | – | –
COc1ccc(OC)c(C#Cc2ccc(OC)c(C(=O)NCCc3ccc(F)cc3)c2)c1 | > 100 µM (inactive) | > 100 µM (inactive) | 2.27 µM (inactive) | – | 2.19 µM (inactive) | – | – | > 100 µM (inactive) | 2.25 µM (inactive) | 6.32 µM (inactive) | > 100 µM (inactive) | > 100 µM (inactive) | – | – | 0.783 µM (active) | – | > 100 µM (inactive) | 6.5 µM (inactive) | –
